Assay results reported in PubChem BioAssay (NCI).
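48-hour exposure; five concentrations; linearly interpolated endpoints. GI50: concentration for 50% inhibition of growth. TGI denotes the concentration required for complete inhibition of growth.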

How the values were obtained:
Assay in all cases: DTP human tumour cell line panel, 48 h
[1] = test system: OVCAR-5 ovarian
[2] = test system: MOLT-4 leukemia
[3] = test system: HOP-92 NSCLC
[4] = test system: NCI-H460 lung
[5] = test system: PC-3 prostate
[6] = test system: NCI-H23 lung
[7] = test system: HCC-2998 colon
[8] = test system: 786-0 renal

| Compound | TGI [1] [µM] | TGI [2] [µM] | TGI [3] [µM] | TGI [4] [µM] | TGI [5] [µM] | TGI [6] [µM] | TGI [7] [µM] | TGI [8] [µM] | GI50 [1] [µM] | GI50 [3] [µM] | GI50 [4] [µM] | GI50 [6] [µM] | GI50 [7] [µM] |
| --- | --- | --- | --- | --- | --- | --- | --- | --- | --- | --- | --- | --- | --- |
| CC(=O)Oc1ccc2cc(Oc3cc(Cl)c(Cl)cc3Cl)c(=O)oc2c1 | 71.2 | 30.4 | 48 | 37.8 | 33 | 88.5 | 30.8 | 29 | – | – | – | – | – |
| CC(=O)OC1CCn2c1nc1cc([N+](=O)[O-])c(C)cc12 (stereo not drawn) | – | > 100 | > 100 | > 100 | > 100 | > 100 | > 100 | > 100 | – | – | – | – | – |
| CC(=O)OCC1OC(OCCCOP(=O)(OCCC#N)OCC2OC(n3cnc4c(N)ncnc43)C(OC(=O)c3ccccc3)C2OC(=O)c2ccccc2)C(OC(C)=O)C(OC(C)=O)C1OC(C)=O (stereo not drawn) | > 100 | > 100 | > 100 | > 100 | > 100 | > 100 | > 100 | > 100 | – | – | – | – | – |
| CCN(CC)c1c(C(C)(C)C)c(=O)n2ccsc2c1OC(C)=O | 29.7 | > 100 | 31.2 | 31.3 | 23.6 | 30.7 | 32.2 | 34.1 | – | – | – | – | – |
| CCOP1(=O)CC(C)=C(Cl)C(OC)C1 (stereo not drawn) | > 100 | > 100 | > 100 | > 100 | > 100 | > 100 | > 100 | > 100 | – | – | – | – | – |
| COC(=O)[C@@H]1c2c(oc3cc(CO)cc(O)c3c2=O)C=C[C@H]1O | 22.8 | > 100 | 22.4 | 34 | 20.1 | 36 | – | 12 | – | – | – | – | – |
| CCCCCCCCCCCC1N=C(N)N=C(N)N1c1cccc(Br)c1 (stereo not drawn) | 2.22 | – | 4.34 | 1.65 | – | 2.69 | 2.42 | – | 0.811 | 1.51 | 0.0779 | 1.18 | 1.16 |
| CN(C)C(=O)C(F)(F)C(c1ccccc1Br)C1C(=O)N(C)C(=O)N(C)C1=O (stereo not drawn) | > 100 | – | > 100 | > 100 | > 100 | > 100 | > 100 | > 100 | – | – | – | – | – |
| NC(Cc1ccccc1)C(=O)OCN1C(=O)C2C3C=CC(C2C1=O)C1C(=O)N(COC(=O)C(N)Cc2ccccc2)C(=O)C31 (stereo not drawn) | > 100 | 51.3 | – | > 100 | > 100 | > 100 | > 100 | > 100 | – | – | – | – | – |
| CCOC(=O)C1=C(O)CC(=O)N=C1N1CCCC1 | > 100 | > 100 | > 100 | – | > 100 | > 100 | > 100 | > 100 | – | – | – | – | – |
| Nc1nc(N)c2nc(CN(C=O)c3ccc(C(=O)O)cc3)cnc2n1 | > 100 | > 100 | > 100 | > 100 | > 100 | > 100 | > 100 | > 100 | – | – | – | – | – |
| CN(C)S(=O)(=O)c1ccc2[nH]c(O)c(C3=Nc4ccccc4C3=O)c2c1 | > 100 | 36.2 | 46.8 | 97.5 | 90.4 | 29.9 | > 100 | 50.3 | – | – | – | – | – |
